Laboratory results reported in US7060681B2, “Compositions and methods for use of bioactive agents derived from sulfated and sulfonated amino acids” (Ecole Polytechnique Federale de Lausanne (EPFL), priority 2001, dated 2006).
Ends that are not written are not given here. * marks the point of attachment. SO3 = sulfate on the tyrosine hydroxyl group, O=S(=O)(O)*

Experiments:
[1] = biological target: T1, VEGF (Homo sapiens, UniProt P15692); assay: Dissociation constant (KD) by surface plasma resonance (SPR); type: binding; conditions: ± standard deviation
T1 sequence (P15692 27-191 isoform P15692-4): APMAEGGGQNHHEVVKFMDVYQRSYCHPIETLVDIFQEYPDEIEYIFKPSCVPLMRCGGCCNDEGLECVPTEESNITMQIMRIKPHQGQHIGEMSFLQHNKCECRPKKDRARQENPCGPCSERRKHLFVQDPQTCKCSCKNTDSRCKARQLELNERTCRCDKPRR
Source text: The sequence from the highest ranked bead from the first library of Example 1, was synthesized as SY(SO3)DY(SO3)G (SEE SEQ ID NO: 17), and the peptide Y(SO3)Y(SO3)GGY(SO3)DY(SO3) (SEE SEQ ID NO: 14) from the library of this Example were both synthesized independently and the dissociation constant (KD) determined by surface plasma resonance (SPR). The peptides were compared to suramin, a known heparin mimic that inhibits angiogenesis. […] Using SPR, there was no detectible binding of the analogous desulfated peptides to VEGF.

[2] = biological target: T2, VEGF165 (Homo sapiens, UniProt P15692); assay: Colorimetric competitive bead assay with biotinylated VEGF165 in presence of heparin; type: binding; conditions: about 0.25 nM biotinylated VEGF165; 1 or 10 equivalents of heparin
T2 construct: made in house; host or cells: E. coli AD494 (DE3)pLysS
T2 sequence (P15692 27-191 isoform P15692-4): T1 sequence (P15692 27-191 isoform P15692-4)
Description: A colorimetric assay was used to screen the library. The assay employed two different precipitating, developing dyes. In this way, beads that bound VEGF165 selectively and through the sulfate functionality could be determined. A portion of the library (2–3 copies) was swelled with H2O and rinsed 3 times with TBS. The resin was subjected overnight to 0.1% albumin and 0.2% Tween in Tris buffered saline (TBS, blocking buffer) and then rinsed with TBS (2×) prior to adding 1 mL streptavidin alkaline phosphatase (diluted 1:1000 from a 1 mg/mL solution) and shaking for 2 hours. The resin was rinsed with TBS (5×) and 200 μL of 5-bromo-4-chloro-3-indoylphosphate p-toluidine salt/nitro blue tetrazolium chloride (BCIP/NBT) reagent was added to develop a blue/black color where the streptavidin alkaline phosphatase was present. Nonspecific adsorption of the streptavidin alkaline phosphatase was detected as blue/black stained beads. After 15 minutes, the resin was rinsed with TBS (5×) prior to adding 100 μL of about 0.25 nM of biotinylated VEGF165 in the presence or absence of 1 or 10 equivalents of heparin sodium salt (isolated from porcine intestinal mucosa) in 400 μL of blocking buffer. The mixture was shaken overnight, the solution removed, the resin washed with TBS (6×), and 1 mL streptavidin alkaline phosphatase (diluted 1:1000 from a 1 mg/mL solution) was added. […]

Row | Kd [1] | Binding of VEGF165 to peptide bead in the presence of heparin (in words) [2] | Compound
1 | 340 µM | – | Cc1ccc(C(=O)Nc2ccc(S(=O)(=O)O)c3cc(S(=O)(=O)O)cc(S(=O)(=O)O)c23)cc1NC(=O)c1cccc(NC(=O)Nc2cccc(C(=O)Nc3cc(C(=O)Nc4ccc(S(=O)(=O)O)c5cc(S(=O)(=O)O)cc(S(=O)(=O)O)c45)ccc3C)c2)c1 [Suramin, suramin]
2 | – | bound | Y(SO3)Y(SO3)GGY(SO3)DY(SO3) (not fully specified (N-terminus); printed as Y(SO3)Y(SO3)GGY(SO3)DY(SO3))
